Consider 20 compounds from PubChem BioAssay AID248 (DTP/NCI, 2004).

Inconclusive results and toxic doses are left out.

This experiment relates to L1210 leukemia ip in BDF1 mice, survival T/C. The experiment in a line: NCI In Vivo Anticancer Drug Screen. Data for tumor model L1210 Leukemia (intraperitoneal) in B6D2F1 (BDF1) mice. Particulars: endpoint: mean survival time, higher = longer survival. Summed up:
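Tumor was transplanted into mice, which were then dosed with test compound or vehicle alone. Survival was recorded for each group, and the treated figure was expressed relative to the control figure.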

Where [1] appears, read: dose: 100.0 mg/kg/injection, schedule: Q01DX009 (ip), vehicle: saline with Tween-80.
Setting [2] is: dose: 100.0 mg/kg/injection, schedule: Q04DX003 (ip), vehicle: saline with Tween-80.
Where [3] appears, read: dose: 200.0 mg/kg/injection, schedule: Q04DX003 (ip), vehicle: saline with Tween-80.
Where [4] appears, read: dose: 400.0 mg/kg/injection, schedule: Q01DX009 (ip), vehicle: saline with Tween-80.
Where [5] appears, read: dose: 400.0 mg/kg/injection, schedule: Q04DX003 (ip), vehicle: saline with Tween-80.
Where [6] appears, read: dose: 50.0 mg/kg/injection, schedule: Q01DX009 (ip), vehicle: Klucel (hydroxypropylcellulose) (HPC).
The mark [7] stands for this setting: dose: 100.0 mg/kg/injection, schedule: Q01DX009 (ip), vehicle: Klucel (hydroxypropylcellulose) (HPC).
Where [8] appears, read: dose: 200.0 mg/kg/injection, schedule: Q01DX009 (ip), vehicle: Klucel (hydroxypropylcellulose) (HPC).
The mark [9] stands for this setting: dose: 200.0 mg/kg/injection, schedule: Q01DX009 (ip), vehicle: saline with Tween-80.
Where [10] appears, read: dose: 100.0 mg/kg/injection, schedule: Q04DX003 (ip), vehicle: saline.
Setting [11] is: dose: 200.0 mg/kg/injection, schedule: Q04DX003 (ip), vehicle: saline.
The mark [12] stands for this setting: dose: 400.0 mg/kg/injection, schedule: Q04DX003 (ip), vehicle: saline.
[13] abbreviates: dose: 75.0 mg/kg/injection, schedule: Q01DX009 (ip), vehicle: saline.
[14] abbreviates: dose: 100.0 mg/kg/injection, schedule: Q04DX003 (ip), vehicle: Klucel (hydroxypropylcellulose) (HPC).
[15] abbreviates: dose: 200.0 mg/kg/injection, schedule: Q04DX003 (ip), vehicle: Klucel (hydroxypropylcellulose) (HPC).
Setting [16] is: dose: 400.0 mg/kg/injection, schedule: Q04DX003 (ip), vehicle: Klucel (hydroxypropylcellulose) (HPC).
[17] abbreviates: dose: 50.0 mg/kg/injection, schedule: Q01DX009 (ip), vehicle: saline.
Where [18] appears, read: dose: 100.0 mg/kg/injection, schedule: Q01DX001 (ip), vehicle: saline.
Setting [19] is: dose: 200.0 mg/kg/injection, schedule: Q01DX001 (ip), vehicle: saline.
Where [20] appears, read: dose: 400.0 mg/kg/injection, schedule: Q01DX001 (ip), vehicle: saline.

`CCOCc1nc(NC(C)=O)nc(NC(C)=O)c1-c1ccc(Cl)cc1`: the T/C (dose: 75.0 mg/kg/injection, schedule: Q01DX001 (ip), vehicle: saline with Tween-80) is 100 % of control and the T/C (dose: 150.0 mg/kg/injection, schedule: Q01DX001 (ip), vehicle: saline with Tween-80) is 96 % of control.
In the case of `O=CN/N=C/c1ccc([N+](=O)[O-])cc1`, the T/C runs as follows: (dose: 75.0 mg/kg/injection, schedule: Q01DX001 (ip), vehicle: saline) 92 % of control; (dose: 150.0 mg/kg/injection, schedule: Q01DX001 (ip), vehicle: saline) 87 % of control; (dose: 300.0 mg/kg/injection, schedule: Q01DX001 (ip), vehicle: saline) 89 % of control.
Take `Clc1ccc(-c2nnc(-c3cccc4ccccc34)o2)cc1Cl`: the T/C is 89 % of control under setting [1]; 86 % of control under setting [2]; 92 % of control under setting [3]; 86 % of control under setting [4]; 86 % of control under setting [5].
Take `C/C(=N\Nc1nc2ccccc2s1)c1ccncc1`: the T/C by setting is: under setting [6], 101 % of control; under setting [7], 100 % of control; under setting [8], 107 % of control; (dose: 400.0 mg/kg/injection, schedule: Q01DX009 (ip), vehicle: Klucel (hydroxypropylcellulose) (HPC)) 101 % of control.
For `COc1ccccc1Cl`, the T/C under setting [1] was 94 % of control; the T/C under setting [2] was 106 % of control; the T/C under setting [9] was 86 % of control; the T/C under setting [3] is 104 % of control; the T/C under setting [5] is 93 % of control.
Turning to `OCC1(CO)CCCCO1`, the T/C reads like this: under setting [10], 96 % of control; under setting [11], 95 % of control; under setting [12], 101 % of control.
Turning to `C[C@]12C=CC(=O)C=C1CC[C@@H]1[C@@H]2CC[C@]2(C)OC(=O)CC[C@@H]12`, the T/C (dose: 125.0 mg/kg/injection, schedule: Q01DX Z (sc), vehicle: steriod suspending solution) was 103 % of control; the T/C (dose: 250.0 mg/kg/injection, schedule: Q01DX Z (sc), vehicle: steriod suspending solution) was 102 % of control; the T/C (dose: 500.0 mg/kg/injection, schedule: Q01DX Z (sc), vehicle: steriod suspending solution) was 101 % of control; the T/C (dose: 1000.0 mg/kg/injection, schedule: Q01DX Z (sc), vehicle: steriod suspending solution) is 101 % of control.
On to `CCOC(=O)NC(N)=O`, for which the T/C is 92 % of control (dose: 50.0 mg/kg/injection, schedule: Q01DX001 (ip), vehicle: carboxymethylcellulose (CMC)); 100 % of control under setting [13]; 97 % of control (dose: 100.0 mg/kg/injection, schedule: Q01DX001 (ip), vehicle: carboxymethylcellulose (CMC)); 110 % of control under setting [14]; 107 % of control under setting [10]; 103 % of control (dose: 150.0 mg/kg/injection, schedule: Q01DX009 (ip), vehicle: saline). The T/C runs as follows: (dose: 200.0 mg/kg/injection, schedule: Q01DX001 (ip), vehicle: carboxymethylcellulose (CMC)) 95 % of control; under setting [15], 98 % of control; under setting [11], 98 % of control; (dose: 300.0 mg/kg/injection, schedule: Q01DX009 (ip), vehicle: saline) 100 % of control; (dose: 400.0 mg/kg/injection, schedule: Q01DX001 (ip), vehicle: carboxymethylcellulose (CMC)) 92 % of control; under setting [16], 98 % of control. Also, under setting [12], the T/C is 102 % of control.
As to `O=C(O)C(S)C(S)C(=O)O.[As]` (stereo not drawn), the T/C is, setting by setting: (dose: 12.5 mg/kg/injection, schedule: Q01DX009 (ip), vehicle: saline) 96 % of control; (dose: 25.0 mg/kg/injection, schedule: Q01DX009 (ip), vehicle: saline) 104 % of control; under setting [17], 98 % of control.
Consider `COc1cc2c(c(OC)c1OC)-c1ccc(SC)c(=O)cc1[C@@H](NC1OC(CO)C(O)C(O)C1O)CC2` (stereo partly drawn), for which the T/C (dose: 25.0 mg/kg/injection, schedule: Q01DX005 (ip), vehicle: saline) is 102 % of control; the T/C under setting [17] was 150 % of control; the T/C under setting [13] is 95 % of control; the T/C (dose: 150.0 mg/kg/injection, schedule: Q01DX005 (ip), vehicle: saline) was 120 % of control.
Turning to `O=[N+]([O-])c1ccc(O)c(N=Cc2ccccc2)c1`, the T/C was 97 % of control under setting [18], 96 % of control under setting [19] and 100 % of control under setting [20].
Take `O=C(NCCCCCCCNC(=O)Nc1ccc(C2=NCCCN2)cc1)Nc1ccc(C2=NCCCN2)cc1`: the T/C is, setting by setting: (dose: 3.75 mg/kg/injection, schedule: Q01DX Z (ip), vehicle: carboxymethylcellulose (CMC)) 98 % of control; (dose: 7.5 mg/kg/injection, schedule: Q01DX Z (ip), vehicle: carboxymethylcellulose (CMC)) 102 % of control; (dose: 15.0 mg/kg/injection, schedule: Q01DX Z (ip), vehicle: carboxymethylcellulose (CMC)) 120 % of control; (dose: 30.0 mg/kg/injection, schedule: Q01DX Z (ip), vehicle: carboxymethylcellulose (CMC)) 89 % of control.
In the case of `CCCCCCCCCCCCCCCCN(C(C)C)S(=O)(=O)c1ccc(Cl)c([N+](=O)[O-])c1`, the T/C reads like this: (dose: 100.0 mg/kg/injection, schedule: Q01DX009 (ip), vehicle: saline sonified) 106 % of control; under setting [14], 91 % of control; (dose: 200.0 mg/kg/injection, schedule: Q01DX009 (ip), vehicle: saline sonified) 96 % of control; under setting [15], 94 % of control; (dose: 400.0 mg/kg/injection, schedule: Q01DX009 (ip), vehicle: saline sonified) 89 % of control; under setting [16], 93 % of control.
As for `COc1ccc([N+](=O)[O-])cc1NC(=O)Nc1ccccc1C(N)=O`, the T/C under setting [6] is 105 % of control, the T/C under setting [7] is 101 % of control and the T/C under setting [8] is 97 % of control.
As for `Nc1nc(I)c2[nH]cnc2n1`, the T/C by setting is: (dose: 25.0 mg/kg/injection, schedule: Q01DX Z (ip), vehicle: methylcellulose (MC)) 95 % of control; (dose: 50.0 mg/kg/injection, schedule: Q01DX Z (ip), vehicle: methylcellulose (MC)) 103 % of control; (dose: 100.0 mg/kg/injection, schedule: Q01DX Z (ip), vehicle: methylcellulose (MC)) 108 % of control.
In the case of `O=C(CCCCC(=O)N/N=C\c1ccccc1O)N/N=C\c1ccccc1O`, the T/C runs as follows: under setting [2], 87 % of control; under setting [3], 89 % of control; under setting [5], 87 % of control.
For `Cc1c(O)ccc([N+](=O)[O-])c1O`, the T/C (dose: 6.25 mg/kg/injection, schedule: Q01DX009 (ip), vehicle: saline with Tween-80) was 93 % of control; the T/C (dose: 12.5 mg/kg/injection, schedule: Q01DX009 (ip), vehicle: saline with Tween-80) is 97 % of control; the T/C (dose: 25.0 mg/kg/injection, schedule: Q01DX009 (ip), vehicle: saline with Tween-80) was 97 % of control.
Regarding `COC(OC)c1nc(N)[nH]c(=O)c1Cc1ccc(C)c2ccccc12`, the T/C is, setting by setting: under setting [1], 96 % of control; under setting [2], 103 % of control; under setting [9], 90 % of control; under setting [3], 97 % of control; under setting [4], 90 % of control; under setting [5], 92 % of control.
For the compound `COc1cc(Br)c(C(C)CC(=O)O)cc1OC` (stereo not drawn), the T/C runs as follows: under setting [2], 103 % of control; under setting [3], 98 % of control; under setting [5], 92 % of control.
`COc1ccc2[nH]c3c(C)c4c(c(C)c3c2c1)CN(C)CC4`: the T/C was 96 % of control (dose: 29.0 mg/kg/injection, schedule: Q01DX Z (ip), vehicle: saline); 98 % of control (dose: 44.0 mg/kg/injection, schedule: Q01DX Z (ip), vehicle: saline); 102 % of control (dose: 66.0 mg/kg/injection, schedule: Q01DX Z (ip), vehicle: saline); 105 % of control under setting [18]; 98 % of control (dose: 100.0 mg/kg/injection, schedule: Q01DX Z (ip), vehicle: saline); 100 % of control (dose: 150.0 mg/kg/injection, schedule: Q01DX Z (ip), vehicle: saline). Also, the T/C by setting is: under setting [19], 100 % of control; under setting [20], 102 % of control.
